We go through 58 molecules from the Kinase Knowledgebase extract (Sharma et al. 2016).

The assay addresses PIK3CG (human) (UniProt P48736). Description: Inhibition of PIK3CG Kinase Activity.

pIC50: −log10 of the molar value. Where only a bound is given, the exact number is not on record here.

Sequence of PIK3CG (human) (P48736 whole entry, looked up): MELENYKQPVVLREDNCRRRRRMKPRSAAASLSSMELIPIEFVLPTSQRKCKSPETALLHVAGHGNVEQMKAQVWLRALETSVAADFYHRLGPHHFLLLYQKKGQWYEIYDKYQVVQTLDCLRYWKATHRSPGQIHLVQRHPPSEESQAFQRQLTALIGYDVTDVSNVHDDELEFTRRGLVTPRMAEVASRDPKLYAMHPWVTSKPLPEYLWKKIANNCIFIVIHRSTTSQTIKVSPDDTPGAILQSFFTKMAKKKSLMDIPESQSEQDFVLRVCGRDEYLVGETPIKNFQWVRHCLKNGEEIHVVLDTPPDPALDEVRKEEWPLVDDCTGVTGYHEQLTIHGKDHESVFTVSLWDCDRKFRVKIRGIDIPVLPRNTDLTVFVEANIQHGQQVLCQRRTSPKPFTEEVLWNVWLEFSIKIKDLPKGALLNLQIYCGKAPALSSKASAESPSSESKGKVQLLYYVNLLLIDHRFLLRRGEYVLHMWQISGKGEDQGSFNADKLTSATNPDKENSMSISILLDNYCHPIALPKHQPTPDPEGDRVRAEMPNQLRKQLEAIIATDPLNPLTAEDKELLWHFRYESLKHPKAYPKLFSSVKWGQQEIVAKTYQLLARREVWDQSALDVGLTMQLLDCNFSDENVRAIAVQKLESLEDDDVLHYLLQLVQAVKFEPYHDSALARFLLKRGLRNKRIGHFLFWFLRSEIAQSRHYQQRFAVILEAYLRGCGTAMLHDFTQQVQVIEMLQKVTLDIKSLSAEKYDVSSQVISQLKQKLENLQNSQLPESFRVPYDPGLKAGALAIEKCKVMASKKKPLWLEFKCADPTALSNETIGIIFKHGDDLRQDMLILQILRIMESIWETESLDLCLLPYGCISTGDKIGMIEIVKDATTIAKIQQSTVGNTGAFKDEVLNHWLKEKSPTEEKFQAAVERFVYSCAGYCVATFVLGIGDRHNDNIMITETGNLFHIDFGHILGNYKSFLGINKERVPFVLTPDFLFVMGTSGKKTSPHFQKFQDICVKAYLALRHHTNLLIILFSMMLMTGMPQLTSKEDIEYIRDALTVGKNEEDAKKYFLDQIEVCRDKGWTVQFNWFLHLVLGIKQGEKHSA

For `CN(C)C(=O)CNC(=O)Nc1nc2c(s1)-c1c(cnn1-c1cc(Cl)ccc1Cl)C2`, the pIC50 (in general, −log10 of the IC50, conventionally taken in molar units) is above 6.10.

`CN1CCC(O)C2(CCCN(C(=O)Nc3nc4c(s3)-c3c(cnn3-c3ccccc3Cl)C4)C2)C1` (stereo not drawn): the pIC50 is above 6.10.

For `CCNC(=O)Nc1nc2c(s1)-c1c(cnn1-c1cc(Cl)ccc1Cl)C2`, the pIC50 was above 6.10.

With `CN(Cc1cnn(C)c1)C(=O)Nc1nc2c(s1)-c1c(cnn1-c1ccccc1C(F)(F)F)C2`, the negative-log IC50 (pIC50) is above 6.10.

`CC(C)(C)OC(=O)NCC1CCCN1C(=O)Nc1nc2c(s1)-c1c(cnn1-c1ccccc1Cl)C2` (stereo not drawn) had a pIC50 above 6.10.

On to `CCc1cc(CC)n(CCNC(=O)Nc2nc3c(s2)-c2c(cnn2-c2ccccc2C(F)(F)F)C3)n1`, for which the pIC50 is above 6.10.

With `CCc1nnc(CCNC(=O)Nc2nc3c(s2)-c2c(cnn2-c2ccccc2C(F)(F)F)C3)o1`, the pIC50 is above 6.10.

`CCc1noc(CCNC(=O)Nc2nc3c(s2)-c2c(cnn2-c2ccccc2Cl)C3)n1` gave a pIC50 above 6.10.

In the case of `CCOC(Cn1nc(CCNC(=O)Nc2nc3c(s2)-c2c(cnn2-c2ccccc2C(F)(F)F)C3)cc1N)OCC`, the pIC50 was above 6.10.

As to `O=C(NCc1ccccn1)Nc1nc2c(s1)-c1c(cnn1-c1ccccc1C(F)(F)F)C2`, the pIC50 is above 6.10.

`CCN1CCC2(CCN(C(=O)Nc3nc4c(s3)-c3c(cnn3-c3ccccc3Cl)C4)C2)C1` (stereo not drawn) had a pIC50 above 6.10.

`CC(C)NC(=O)Nc1nc2c(s1)-c1c(cnn1-c1ccccc1C(F)(F)F)C2` gave a negative-log IC50 (pIC50) above 6.10.

The molecule `Nc1cc(CCNC(=O)Nc2nc3c(s2)-c2c(cnn2-c2ccccc2C(F)(F)F)C3)nn1Cc1ccccc1` gave a pIC50 above 6.10.

As for `CC(C)c1noc(CCNC(=O)Nc2nc3c(s2)-c2c(cnn2-c2ccccc2C(F)(F)F)C3)n1`, the pIC50 is above 6.10.

Molecule `CCNC(=O)Nc1nc2c(s1)-c1c(cnn1-c1ccccc1C(F)(F)F)C2` showed a pIC50 above 6.10.

As for `O=C(O)CCCNC(=O)Nc1nc2c(s1)-c1c(cnn1-c1ccccc1C(F)(F)F)C2`, the pIC50 was above 6.10.

The molecule `O=C(NCc1ncc[nH]1)Nc1nc2c(s1)-c1c(cnn1-c1ccccc1Cl)C2` gave a negative-log IC50 (pIC50) above 6.10.

For the molecule `CC(C)(C)OC(=O)N1CCC[C@@H]1CNC(=O)Nc1nc2c(s1)-c1c(cnn1-c1ccccc1Cl)C2`, the pIC50 was above 6.10.

As to `O=C(NCC1CC1)Nc1nc2c(s1)-c1c(cnn1-c1ccccc1C(F)(F)F)C2`, the pIC50 was above 6.10.

The molecule `Cc1nc[nH]c1-c1cccc(CNC(=O)Nc2nc3c(s2)-c2c(cnn2-c2ccccc2Cl)C3)c1` gave a pIC50 above 6.10.

In turn, `CN(C)CCNC(=O)Nc1nc2c(s1)-c1c(cnn1-c1ccccc1C(F)(F)F)C2` had a pIC50 above 6.10.

For the molecule `O=C(NCCc1ccccc1)Nc1nc2c(s1)-c1c(cnn1-c1ccccc1Cl)C2`, the pIC50 was above 6.10.

`Cn1cc(CNC(=O)Nc2nc3c(s2)-c2c(cnn2-c2ccccc2C(F)(F)F)C3)cn1` gave a pIC50 above 6.10.

`O=C(NCCO)Nc1nc2c(s1)-c1c(cnn1-c1ccccc1C(F)(F)F)C2` gave a pIC50 above 6.10.

`O=C(NCc1cccc(N2CCNC2=O)c1)Nc1nc2c(s1)-c1c(cnn1-c1ccccc1Cl)C2` gave a pIC50 above 6.10.

On to `CC(C)(C)n1nc(CCNC(=O)Nc2nc3c(s2)-c2c(cnn2-c2ccccc2C(F)(F)F)C3)cc1N`, for which the pIC50 is above 6.10.

The molecule `CC(C)n1nc(CCNC(=O)Nc2nc3c(s2)-c2c(cnn2-c2ccccc2C(F)(F)F)C3)cc1N` had a pIC50 above 6.10.

Take `CC(C)c1noc(CCNC(=O)Nc2nc3c(s2)-c2c(cnn2-c2ccccc2Cl)C3)n1`: the pIC50 is above 6.10.

`COc1ccccc1C1CCN(C(=O)Nc2nc3c(s2)-c2c(cnn2-c2ccccc2Cl)C3)C1` (stereo not drawn): the pIC50 was above 6.10.

In turn, `CC(C)(C)OC(=O)NCc1ccccc1NC(=O)Nc1nc2c(s1)-c1c(cnn1-c1ccccc1Cl)C2` gave a pIC50 above 6.10.

The molecule `Nc1cc(CCNC(=O)Nc2nc3c(s2)-c2c(cnn2-c2ccccc2C(F)(F)F)C3)nn1-c1ccccc1` had a pIC50 above 6.10.

The molecule `O=C(NCc1cccc(C(=O)NC2CCCCC2)c1)Nc1nc2c(s1)-c1c(cnn1-c1ccccc1Cl)C2` gave a pIC50 above 6.10.

Molecule `CN(CCc1cn[nH]c1)C(=O)Nc1nc2c(s1)-c1c(cnn1-c1ccccc1C(F)(F)F)C2` gave a pIC50 above 6.10.

Molecule `CN(C)C(=O)Nc1nc2c(s1)-c1c(cnn1-c1ccccc1Br)C2` showed a pIC50 above 6.10.

On to `CC(C)(C)CCNC(=O)Nc1nc2c(s1)-c1c(cnn1-c1ccccc1Cl)C2`, for which the pIC50 is above 6.10.

`O=C(NCc1cccc(N2CCNC2=O)c1)Nc1nc2c(s1)-c1c(cnn1-c1ccccc1C(F)(F)F)C2` showed a pIC50 above 6.10.

With `O=C(NCc1ccccc1-n1cccn1)Nc1nc2c(s1)-c1c(cnn1-c1ccccc1Cl)C2`, the pIC50 is above 6.10.

Molecule `N#Cc1ccc(CNC(=O)Nc2nc3c(s2)-c2c(cnn2-c2ccccc2C(F)(F)F)C3)s1` showed a pIC50 above 6.10.

`CC(C)c1nnc(CCNC(=O)Nc2nc3c(s2)-c2c(cnn2-c2ccccc2Cl)C3)o1` showed a pIC50 above 6.10.

For the molecule `CC(C)(C)c1cc(N)n(CCNC(=O)Nc2nc3c(s2)-c2c(cnn2-c2ccccc2C(F)(F)F)C3)n1`, the negative logarithm of the IC50 (pIC50) was above 6.10.

`CCn1cnc(CCNC(=O)Nc2nc3c(s2)-c2c(cnn2-c2ccccc2Br)C3)c1`: the pIC50 was above 6.10.

Turning to `CCCNC(=O)Nc1nc2c(s1)-c1c(cnn1-c1cccc(F)c1C(F)(F)F)C2`, the pIC50 was above 6.10.

On to `O=C(NCCCN1CCNC1=O)Nc1nc2c(s1)-c1c(cnn1-c1ccccc1Cl)C2`, for which the pIC50 was above 6.10.

For `Nc1cc(CCNC(=O)Nc2nc3c(s2)-c2c(cnn2-c2ccccc2C(F)(F)F)C3)[nH]n1`, the negative-log IC50 (pIC50) was above 6.10.

Turning to `CC(C)c1nnc(CCNC(=O)Nc2nc3c(s2)-c2c(cnn2-c2ccccc2C(F)(F)F)C3)o1`, the pIC50 is above 6.10.

Consider `Cn1nc(CNC(=O)Nc2nc3c(s2)-c2c(cnn2-c2ccccc2C(F)(F)F)C3)cc1N`, for which the pIC50 was above 6.10.

The molecule `CC(C)CNC(=O)Nc1nc2c(s1)-c1c(cnn1-c1ccccc1Cl)C2` showed a pIC50 above 6.10.

For `CC(C)(NC(=O)Nc1nc2c(s1)-c1c(cnn1-c1ccccc1Cl)C2)C1Nc2ccccc2NC1=O` (stereo not drawn), the pIC50 is above 6.10.

As for `CCn1cnc(CCNC(=O)Nc2nc3c(s2)-c2c(cnn2-c2cc(Cl)ccc2Cl)C3)c1`, the pIC50 is above 6.10.

Turning to `O=C(Nc1nc2c(s1)-c1c(cnn1-c1ccccc1Cl)C2)N1CCCC(C(O)c2ccccc2)C1` (stereo not drawn), the pIC50 was above 6.10.

`CCNC(=O)Nc1c(CCNC(=O)Nc2nc3c(s2)-c2c(cnn2-c2ccccc2C(F)(F)F)C3)cnn1C` had a pIC50 above 6.10.

`O=C(NCc1cc(C2CC2)n[nH]1)Nc1nc2c(s1)-c1c(cnn1-c1ccccc1Cl)C2` showed a pIC50 above 6.10.

`CCc1nnc(CCNC(=O)Nc2nc3c(s2)-c2c(cnn2-c2ccccc2Cl)C3)o1`: the pIC50 was above 6.10.

`Nc1cc(CCNC(=O)Nc2nc3c(s2)-c2c(cnn2-c2ccccc2C(F)(F)F)C3)nn1CC(F)(F)F`: the pIC50 was above 6.10.

For `CC(=O)NC1CCN(C(=O)Nc2nc3c(s2)-c2c(cnn2-c2ccccc2Cl)C3)C1` (stereo not drawn), the negative logarithm of the IC50 (pIC50) is above 6.10.

`CNC(=O)Nc1nc2c(s1)-c1c(cnn1-c1cc(Cl)ccc1Cl)C2` gave a pIC50 above 6.10.

As to `CC(C)(C)OC(=O)N1CCC(CNC(=O)Nc2nc3c(s2)-c2c(cnn2-c2ccccc2Cl)C3)CC1`, the pIC50 was above 6.10.

As for `CN(C)C(=O)CNC(=O)Nc1nc2c(s1)-c1c(cnn1-c1ccccc1C(F)(F)F)C2`, the pIC50 is above 6.10.
